For test [1], the target named is T1, AKT1 E17K (Homo sapiens, UniProt P31749, E17K).
T1 construct: expressed in transfected cells; host or cells: HEK293
Briefly: Live cell target engagement by NanoBRET competitive probe displacement, AKT1 E17K. In kind it is binding. As to conditions: transfected HEK293 cells, 2 h at 37° C., read-out: AKT1 E17K IC50: GeoMean IC50. (In general: In BRET a luciferase serves as donor, and the signal depends on an acceptor being close.)

Test [2] has as its target T2, AKT1 WT (Homo sapiens, UniProt P31749).
T2 construct: expressed in transfected cells; host or cells: HEK293
The test can be described thus: Live cell target engagement by NanoBRET competitive probe displacement, AKT1 WT. Type of test: binding. To be noted: transfected HEK293 cells, 2 h at 37° C., read-out: AKT1 WT IC50: GeoMean IC50.

Test [3] concerns the target T3, AKT2 (Homo sapiens, UniProt P31751).
T3 construct: expressed in transfected cells; host or cells: HEK293
The test can be described thus: Live cell target engagement by NanoBRET competitive probe displacement, AKT2. To be noted: transfected HEK293 cells, 2 h at 37° C., read-out: AKT2 IC50: GeoMean IC50. Type of test: binding.

In test [4] the test system is LAPC4 prostate cancer cells, which express the AKT1 E17K allele. Briefly: Antiproliferative effects in LAPC4 cells (CellTiter Glo, 72 h). In kind it is cell-based. To be noted: read-out: LAPC4 proliferation IC50: GeoMean IC50. The method in brief:
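Cells grown in IMDM with 12% FBS, seeded at 1,000 cells/well and treated with compound dilutions in DMSO for 72 h. Intracellular ATP read by luminescence. IC50 from a log(inhibitor) vs. response Hill fit.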
(In general: In ATP-based viability assays light output follows the ATP content of the culture.)

Read-outs that look alike come from different tables or passages of the source.

T3 sequence (P31751 whole entry): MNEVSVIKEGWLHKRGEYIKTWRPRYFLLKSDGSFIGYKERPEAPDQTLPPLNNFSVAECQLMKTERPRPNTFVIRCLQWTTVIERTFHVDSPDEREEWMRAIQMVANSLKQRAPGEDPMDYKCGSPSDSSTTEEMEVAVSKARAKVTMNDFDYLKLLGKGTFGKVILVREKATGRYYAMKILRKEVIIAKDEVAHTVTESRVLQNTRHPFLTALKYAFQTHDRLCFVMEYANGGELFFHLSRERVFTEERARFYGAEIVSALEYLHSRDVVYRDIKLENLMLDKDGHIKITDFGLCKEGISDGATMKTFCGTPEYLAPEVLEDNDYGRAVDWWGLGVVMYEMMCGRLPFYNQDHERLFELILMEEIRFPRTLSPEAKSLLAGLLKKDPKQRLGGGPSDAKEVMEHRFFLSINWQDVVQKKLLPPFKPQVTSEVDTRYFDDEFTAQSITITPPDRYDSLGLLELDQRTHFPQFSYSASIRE
T1 sequence (P31749 whole entry E17K): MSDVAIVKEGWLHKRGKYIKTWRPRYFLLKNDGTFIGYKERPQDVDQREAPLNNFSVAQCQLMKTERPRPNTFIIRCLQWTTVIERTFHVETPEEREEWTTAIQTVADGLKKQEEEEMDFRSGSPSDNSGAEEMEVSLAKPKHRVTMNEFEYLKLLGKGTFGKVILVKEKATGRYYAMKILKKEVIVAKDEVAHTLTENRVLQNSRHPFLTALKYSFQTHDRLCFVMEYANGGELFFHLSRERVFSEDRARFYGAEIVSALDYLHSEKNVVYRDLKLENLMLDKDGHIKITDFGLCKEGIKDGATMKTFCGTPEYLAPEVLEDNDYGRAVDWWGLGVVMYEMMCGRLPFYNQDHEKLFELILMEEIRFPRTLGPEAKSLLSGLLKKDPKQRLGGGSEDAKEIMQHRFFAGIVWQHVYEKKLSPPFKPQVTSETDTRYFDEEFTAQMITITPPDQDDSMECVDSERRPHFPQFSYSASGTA
T2 sequence (P31749 whole entry): as the sequence (P31749 whole entry E17K) above, with K17E counted along it

In the case of `CN(C)c1cc(C(=O)N[C@H]2CCc3cc(-n4c(-c5cccnc5N)nc5ccc(-n6cccn6)nc54)ccc32)cc(C=O)c1O` [Example 228, N-[(1S)-5-[2-(2-aminopyridin-3-yl)-5-(pyrazol-1-yl)imidazo[4,5-b]pyridin-3-yl]-2,3-dihydro-1H-inden-1-yl]-3-(dimethylamino)-5-formyl-4-hydroxybenzamide], the IC50 in test [1] is 10 to 100 nM; in test [2], 100 to 2000 nM; in test [3], not below 2000 nM; in test [4] (Homo sapiens, LAPC4, 72 h), 100 to 2000 nM.
For `Cc1ccc(-c2nc3ccc(-n4cccn4)nc3n2-c2ccc3c(c2)CC[C@@H]3NC(=O)c2ccc(O)c(C=O)c2)c(N)n1` [Example 166, (S)—N-(5-(2-(2-amino-6-methylpyridin-3-yl)-5-(1H-pyrazol-1-yl)-3H-imidazo[4,5-b]pyridin-3-yl)-2,3-dihydro-1H-inden-1-yl)-3-formyl-4-hydroxybenzamide], the IC50 is not below 2000 nM in test [1]; not below 2000 nM in test [2]; not below 2000 nM in test [3]; not below 2000 nM in test [4] (Homo sapiens, LAPC4, 72 h).
Turning to `Nc1ncccc1-c1nc2ccc(-c3ccccc3)nc2n1-c1ccc2c(c1)CC[C@@H]2NC(=O)c1cc(C=O)c(O)cc1Cl` [Example 34, N-[(1S)-5-[2-(2-aminopyridin-3-yl)-5-phenylimidazo[4,5-b]pyridin-3-yl]-2,3-dihydro-1H-inden-1-yl]-2-chloro-5-formyl-4-hydroxybenzamide], the IC50 in test [1] was in the range of 10 to 100 nM; in test [2], 10 to 100 nM; in test [3], 100 to 2000 nM; in test [4] (Homo sapiens, LAPC4, 72 h), 100 to 2000 nM.
Regarding `COc1cc(C(=O)N[C@H]2CCc3cc(-n4c(-c5cccnc5N)nc5ccc(-c6ccccc6)nc54)ccc32)cc(C=O)c1O` [Example 36, N-[(1S)-5-[2-(2-aminopyridin-3-yl)-5-phenylimidazo[4,5-b]pyridin-3-yl]-2,3-dihydro-1H-inden-1-yl]-3-formyl-4-hydroxy-5-methoxybenzamide], the IC50 in test [1] fell in the range of 10 to 100 nM; in test [2] it was 10 to 100 nM; in test [3] it was 100 to 2000 nM; in test [4] (Homo sapiens, LAPC4, 72 h) it was 100 to 2000 nM.
`Nc1ncccc1-c1nc2ccc(-c3ccccc3)nc2n1-c1ccc2c(c1)CCC2C(=O)NCc1ccc(C=O)c(O)c1` (stereo not drawn) [Example 10, 5-(2-(2-aminopyridin-3-yl)-5-phenyl-3H-imidazo[4,5-b]pyridin-3-yl)-N-(4-formyl-3-hydroxybenzyl)-2,3-dihydro-1H-indene-1-carboxamide]: the IC50 was less than 10 nM in test [1]; 10 to 100 nM in test [2]; 100 to 2000 nM in test [3]; 10 to 100 nM in test [4] (Homo sapiens, LAPC4, 72 h).
As for `Nc1ncccc1-c1nc2ccc(-c3ncco3)nc2n1-c1ccc2c(c1)CC[C@@H]2NC(=O)c1ccc(O)c(C=O)c1` [Example 121, (S)—N-(5-(2-(2-aminopyridin-3-yl)-5-(oxazol-2-yl)-3H-imidazo[4,5-b]pyridin-3-yl)-2,3-dihydro-1H-inden-1-yl)-3-formyl-4-hydroxybenzamide], the IC50 in test [1] is less than 10 nM; in test [2], 10 to 100 nM; in test [3] it was 100 to 2000 nM; in test [4] (Homo sapiens, LAPC4, 72 h) it was 10 to 100 nM.
As to `Nc1ncccc1-c1nc2ccc(-n3ncc4cccnc43)nc2n1-c1ccc2c(c1)CC[C@@H]2NC(=O)c1cc(C=O)c(O)c(F)c1F` [Example 172, (S)—N-(5-(2-(2-aminopyridin-3-yl)-5-(1H-pyrazolo[3,4-b]pyridin-1-yl)-3H-imidazo[4,5-b]pyridin-3-yl)-2,3-dihydro-1H-inden-1-yl)-2,3-difluoro-5-formyl-4-hydroxybenzamide], the IC50 in test [1] was in the range of 10 to 100 nM; in test [2], 10 to 100 nM; in test [3], 100 to 2000 nM; in test [4] (Homo sapiens, LAPC4, 72 h) it was 10 to 100 nM.
On to `Nc1ncccc1-c1nc2ccc(-c3nccs3)nc2n1-c1ccc2c(c1)CC[C@@H]2NC(=O)c1cc(C=O)c(O)cc1F` [Example 144, N-[(1S)-5-[2-(2-aminopyridin-3-yl)-5-(1,3-thiazol-2-yl)imidazo[4,5-b]pyridin-3-yl]-2,3-dihydro-1H-inden-1-yl]-2-fluoro-5-formyl-4-hydroxybenzamide], for which the IC50 in test [1] was 10 to 100 nM; in test [2] it was 10 to 100 nM; in test [3], 10 to 100 nM; in test [4] (Homo sapiens, LAPC4, 72 h) it was 10 to 100 nM.
In the case of `Nc1ncccc1-c1nc2ccc(-n3ccc(N4CCC4)n3)nc2n1-c1ccc2c(c1)CC[C@@H]2NC(=O)c1ccc(O)c(C=O)c1` [Example 156, (S)—N-(5-(2-(2-aminopyridin-3-yl)-5-(3-(azetidin-1-yl)-1H-pyrazol-1-yl)-3H-imidazo[4,5-b]pyridin-3-yl)-2,3-dihydro-1H-inden-1-yl)-3-formyl-4-hydroxybenzamide], the IC50 was 10 to 100 nM in test [1]; 10 to 100 nM in test [2]; 10 to 100 nM in test [3]; less than 10 nM in test [4] (Homo sapiens, LAPC4, 72 h).
Turning to `Nc1ncccc1-c1nc2ccc(-n3ccc(F)n3)nc2n1-c1ccc2c(c1)CC[C@@H]2NC(=O)c1cc(C=O)c(O)c(F)c1F` [Example 125, (S)—N-(5-(2-(2-aminopyridin-3-yl)-5-(3-fluoro-1H-pyrazol-1-yl)-3H-imidazo[4,5-b]pyridin-3-yl)-2,3-dihydro-1H-inden-1-yl)-2,3-difluoro-5-formyl-4-hydroxybenzamide], the IC50 in test [1] was less than 10 nM; in test [2], 10 to 100 nM; in test [3] it was 100 to 2000 nM; in test [4] (Homo sapiens, LAPC4, 72 h), 10 to 100 nM.
As for `Cc1ccc2nc(-c3cccnc3N)n(-c3ccc4c(c3)CC[C@@H]4NC(=O)c3cc(F)c(O)c(C=O)c3)c2n1` [Example 44, (S)—N-(5-(2-(2-aminopyridin-3-yl)-5-methyl-3H-imidazo[4,5-b]pyridin-3-yl)-2,3-dihydro-1H-inden-1-yl)-3-fluoro-5-formyl-4-hydroxybenzamide], the IC50 is 100 to 2000 nM in test [1]; 100 to 2000 nM in test [2]; not below 2000 nM in test [3]; 100 to 2000 nM in test [4] (Homo sapiens, LAPC4, 72 h).
Take `Nc1ncccc1-c1nc2ccc(-c3cccnn3)nc2n1-c1ccc2c(c1)CC[C@@H]2NC(=O)c1ccc(O)c(C=O)c1` [Example 18, N-[(1S)-5-[2-(2-aminopyridin-3-yl)-5-(pyridazin-3-yl)imidazo[4,5-b]pyridin-3-yl]-2,3-dihydro-1H-inden-1-yl]-3-formyl-4-hydroxybenzamide]: the IC50 is 10 to 100 nM in test [1]; 10 to 100 nM in test [2]; 100 to 2000 nM in test [3]; 100 to 2000 nM in test [4] (Homo sapiens, LAPC4, 72 h).
Regarding `Nc1ncccc1-c1nc2ccc(-n3cccn3)nc2n1-c1ccc2c(c1)CC(F)[C@@H]2NC(=O)c1ccc(O)c(C=O)c1` (single isomer, unassigned) [Example 257, N-[(1R,2S*)-5-[2-(2-aminopyridin-3-yl)-5-(pyrazol-1-yl)imidazo[4,5-b]pyridin-3-yl]-2-fluoro-2,3-dihydro-1H-inden-1-yl]-3-formyl-4-hydroxybenzamide], the IC50 in test [1] is 10 to 100 nM; in test [2] it was 10 to 100 nM; in test [3] it was 100 to 2000 nM; in test [4], 100 to 2000 nM.
Consider `Nc1ncccc1-c1nc2ccc(-n3cc(F)cn3)nc2n1-c1ccc2c(c1)CC[C@@H]2NC(=O)c1ccc(O)c(C=O)c1` [Example 76, N-[(1S)-5-[2-(2-aminopyridin-3-yl)-5-(4-fluoropyrazol-1-yl)imidazo[4,5-b]pyridin-3-yl]-2,3-dihydro-1H-inden-1-yl]-3-formyl-4-hydroxybenzamide], for which the IC50 in test [1] fell in the range of 10 to 100 nM; in test [2], 100 to 2000 nM; in test [3], 100 to 2000 nM; in test [4] (Homo sapiens, LAPC4, 72 h) it was 100 to 2000 nM.
Regarding `Nc1ncccc1-c1nc2ccc(-n3cccn3)nc2n1-c1ccc2c(c1)CC[C@@H]2NC(=O)c1cc(C=O)c(O)c(Cl)c1F` [Example 123, (S)—N-(5-(2-(2-aminopyridin-3-yl)-5-(1H-pyrazol-1-yl)-3H-imidazo[4,5-b]pyridin-3-yl)-2,3-dihydro-1H-inden-1-yl)-3-chloro-2-fluoro-5-formyl-4-hydroxybenzamide], the IC50 in test [1] is less than 10 nM; in test [2] it was 10 to 100 nM; in test [3], 10 to 100 nM; in test [4] (Homo sapiens, LAPC4, 72 h) it was 10 to 100 nM.
Consider `Nc1ncccc1-c1nc2ccc(-c3ccccc3)nc2n1-c1ccc2c(c1)CC[C@@H]2NC(=O)c1ccc(C=O)c(O)c1F` [Example 31, N-[(1S)-5-[2-(2-aminopyridin-3-yl)-5-phenylimidazo[4,5-b]pyridin-3-yl]-2,3-dihydro-1H-inden-1-yl]-2-fluoro-4-formyl-3-hydroxybenzamide], for which the IC50 in test [1] is 10 to 100 nM; in test [2], 10 to 100 nM; in test [3], 100 to 2000 nM; in test [4] (Homo sapiens, LAPC4, 72 h), 100 to 2000 nM.
Regarding `Nc1ncccc1-c1nc2ccc(-c3cc4n(n3)CCOC4)nc2n1-c1ccc2c(c1)CC[C@@H]2NC(=O)c1cc(C=O)c(O)cc1F` [Example 246, N-[(1S)-5-[2-(2-aminopyridin-3-yl)-5-{4H,6H,7H-pyrazolo[3,2-c][1,4]oxazin-2-yl}imidazo[4,5-b]pyridin-3-yl]-2,3-dihydro-1H-inden-1-yl]-2-fluoro-5-formyl-4-hydroxybenzamide], the IC50 in test [1] fell in the range of 10 to 100 nM; in test [2], 10 to 100 nM; in test [3] it was 100 to 2000 nM; in test [4] (Homo sapiens, LAPC4, 72 h), 10 to 100 nM.
With `Nc1ncccc1-c1nc2ccc(-n3cccn3)nc2n1-c1ccc2c(c1)CC[C@@H]2n1cnc2cc(O)c(C=O)cc2c1=O` [Example 184, 3-[(1S)-5-[2-(2-aminopyridin-3-yl)-5-(pyrazol-1-yl)imidazo[4,5-b]pyridin-3-yl]-2,3-dihydro-1H-inden-1-yl]-7-hydroxy-4-oxoquinazoline-6-carbaldehyde], the IC50 in test [1] was in the range of 10 to 100 nM; in test [2], 10 to 100 nM; in test [3], 100 to 2000 nM; in test [4] (Homo sapiens, LAPC4, 72 h), 10 to 100 nM.
